# Measurements as given in patent US20170007615A1, “Antibacterial Compounds” (priority 2014, published 2017).
# Tests used:
# [1] = system: N. gonorrheae (ATCC 49226); assay: Antibacterial activity (MIC), Gram-negative type strain; assay type: cell-based, Neisseria gonorrhoeae; conditions: Neisseria gonorrhoeae, ATCC49226; Table 13
# [2] = system: H. influenzae (ATCC 49247); assay: as above; assay type: cell-based, Haemophilus influenzae; conditions: Haemophilus influenzae, ATCC49247; Table 13
# [3] = system: E. faecalis (ATCC 29212); assay: Antibacterial activity (MIC), Gram-positive type strain; assay type: cell-based, Enteroccocus faecalis; conditions: Enterococcus faecalis, ATCC29212; Table 13
# [4] = system: S. aureus (ATCC 29213); assay: as above; assay type: cell-based, Staphylococcus aureus; conditions: Staphylococcus aureus, ATCC29213; Table 13
MIC [1] [µg/mL],MIC [2] [µg/mL],MIC [3] [ng/mL],MIC [4] [µg/mL],SMILES
≤ 0.008,0.015,≤ 8,0.015,"CCNC(=O)Nc1nc2cc(-c3cnc(NS(=O)(=O)C4CC4)nc3)cc(-c3ccc(C)cn3)c2s1 [Compound A-40, N-(5-(2-(3-ethylureido)-7-(5-methylpyridin-2-yl)benzo[d]thiazol-5-yl)pyrimidin-2-yl)cyclopropanesulfonamide]"
0.015,0.06,≤ 8,0.5,"CCNC(=O)Nc1nc2cc(-c3cnc(NS(=O)(=O)NC)nc3)cc(-c3ccccn3)c2s1 [Compound A-41, 1-ethyl-3-[5-[2-(methylsulfamoylamino)pyrimidin-5-yl]-7-(2-pyridyl)-1,3-benzothiazol-2-yl]urea]"
≤ 0.008,0.03,≤ 8,0.03,"CCNC(=O)Nc1nc2cc(-c3cnc(NS(=O)(=O)N4CCOCC4)nc3)cc(-c3ccc(C)cn3)c2s1 [Compound A-44, N-(5-(2-(3-ethylureido)-7-(5-methylpyridin-2-yl)benzo[d]thiazol-5-yl)pyrimidin-2-yl)morpholine-4-sulfonamide]"
≤ 0.008,0.06,≤ 8,0.015,"CCNC(=O)Nc1nc2cc(-c3cnc(NS(=O)(=O)N4CCCC4)nc3)cc(-c3ccccn3)c2s1 [Compound A-45, N-(5-(2-(3-ethylureido)-7-(pyridin-2-yl)benzo[d]thiazol-5-yl)pyrimidin-2-yl)pyrrolidine-1-sulfonamide]"
≤ 0.008,≤ 0.008,≤ 8,0.015,"CCNC(=O)Nc1nc2cc(-c3cnc(NS(=O)(=O)CC)nc3)cc(-c3ccc(C)cn3)c2s1 [Compound A-47, N-(5-(2-(3-ethylureido)-7-(5-methylpyridin-2-yl)benzo[d]thiazol-5-yl)pyrimidin-2-yl)ethanesulfonamide]"
≤ 0.008,0.015,8,0.015,"CCNC(=O)Nc1nc2cc(-c3cnc(NS(=O)(=O)c4ccccc4)nc3)cc(-c3ccc(C)cn3)c2s1 [Compound A-51, N-(5-(2-(3-ethylureido)-7-(5-methylpyridin-2-yl)benzo[d]thiazol-5-yl)pyrimidin-2-yl)benzenesulfonamide]"
0.03,0.12,120,0.5,"CCNC(=O)Nc1nc2cc(-c3cnc(NS(=O)(=O)CCN4CCOCC4)nc3)cc(-c3ccc(C)cn3)c2s1 [Compound A-52, N-(5-(2-(3-ethylureido)-7-(5-methylpyridin-2-yl)benzo[d]thiazol-5-yl)pyrimidin-2-yl)-2-morpholinoethanesulfonamide]"
≤ 0.008,0.03,≤ 8,0.12,"CCNC(=O)Nc1nc2cc(-c3cnc(NS(=O)(=O)N4CCC(O)C4)nc3)cc(-c3ccc(C)cn3)c2s1 (stereo not drawn) [Compound A-54, N-(5-(2-(3-ethylureido)-7-(5-methylpyridin-2-yl)benzo[d]thiazol-5-yl)pyrimidin-2-yl)-3-hydroxypyrrolidine-1-sulfonamide]"
≤ 0.008,0.03,≤ 8,0.12,"CCNC(=O)Nc1nc2cc(-c3cnc(NS(=O)(=O)C4(CO)CC4)nc3)cc(-c3ccc(C)cn3)c2s1 [Compound A-55, N-(5-(2-(3-ethylureido)-7-(5-methylpyridin-2-yl)benzo[d]thiazol-5-yl)pyrimidin-2-yl)-1-(hydroxymethyl)cyclopropane-1-sulfonamide]"
0.06,0.12,15,0.06,"CCNC(=O)Nc1nc2cc(-c3cnc(NS(=O)(=O)N4CC[C@@H](N5CCOCC5)C4)nc3)cc(-c3ccc(C)cn3)c2s1 [Compound A-56, (R)—N-(5-(2-(3-ethylureido)-7-(5-methylpyridin-2-yl)benzo[d]thiazol-5-yl)pyrimidin-2-yl)-3-morpholinopyrrolidine-1-sulfonamide]"

# Further lines, the compound ahead of its results:
SMILES,MIC [1] [µg/mL],MIC [2] [µg/mL],MIC [3] [ng/mL],MIC [4] [µg/mL]
"CCNC(=O)Nc1nc2cc(-c3cnc(NS(=O)(=O)N(C)C)nc3)cc(-c3ccc(C)cn3)c2s1 [Compound A-38, 1-[5-[2-(dimethylsulfamoylamino)pyrimidin-5-yl]-7-(5-methyl-2-pyridyl)-1,3-benzothiazol-2-yl]-3-ethyl urea]",≤ 0.008,0.03,≤ 8,0.015
"CCNC(=O)Nc1nc2cc(-c3cnc(NS(=O)(=O)NCC)nc3)cc(-c3ccc(C)cn3)c2s1 [Compound A-39, 1-ethyl-3-[5-[2-(ethylsulfamoylamino)pyrimidin-5-yl]-7-(5-methyl-2-pyridyl)-1,3-benzothiazol-2-yl]urea]",0.015,0.03,≤ 8,0.015
"CCNC(=O)Nc1nc2cc(-c3cnc(NS(=O)(=O)NC)nc3)cc(-c3ccc(C)cn3)c2s1 [Compound A-42, 1-ethyl-3-[7-(5-methyl-2-pyridyl)-5-[2-(methylsulfamoylamino)pyrimidin-5-yl]-1,3-benzothiazol-2-yl]urea]",≤ 0.008,0.03,≤ 8,0.06
"CCNC(=O)Nc1nc2cc(-c3cnc(NS(=O)(=O)C[C@@H](N)Cc4ccccc4)nc3)cc(-c3ccc(C)cn3)c2s1 [Compound A-46, (S)-2-amino-N-(5-(2-(3-ethylureido)-7-(5-methylpyridin-2-yl)benzo[d]thiazol-5-yl)pyrimidin-2-yl)-3-phenylpropane-1-sulfonamide]",0.06,2,250,1
"CCNC(=O)Nc1nc2cc(-c3cnc(NS(=O)(=O)C(C)C)nc3)cc(-c3ccc(C)cn3)c2s1 [Compound A-48, N-(5-(2-(3-ethylureido)-7-(5-methylpyridin-2-yl)benzo[d]thiazol-5-yl)pyrimidin-2-yl)propane-2-sulfonamide]",≤ 0.008,0.03,≤ 8,0.015
"CCNC(=O)Nc1nc2cc(-c3cnc(NS(=O)(=O)N4CC(OC)C4)nc3)cc(-c3ccccn3)c2s1 [Compound A-49, N-(5-(2-(3-ethylureido)-7-(pyridin-2-yl)benzo[d]thiazol-5-yl)pyrimidin-2-yl)-3-methoxyazetidine-1-sulfonamide]",0.25,2,250,1
"CCNC(=O)Nc1nc2cc(-c3cnc(NS(=O)(=O)N4CC(OC)C4)nc3)cc(-c3ccc(C)cn3)c2s1 [Compound A-50, N-(5-(2-(3-ethylureido)-7-(5-methylpyridin-2-yl)benzo[d]thiazol-5-yl)pyrimidin-2-yl)-3-methoxyazetidine-1-sulfonamide]",0.25,4,30,0.5
"CCNC(=O)Nc1nc2cc(-c3cnc(NS(=O)(=O)C4CCNC4)nc3)cc(-c3ccc(C)cn3)c2s1 (stereo not drawn) [Compound A-53, N-(5-(2-(3-ethylureido)-7-(5-methylpyridin-2-yl)benzo[d]thiazol-5-yl)pyrimidin-2-yl)pyrrolidine-3-sulfonamide]",2,> 64,500,> 64
